Data as given in patent US20240318182A1, “METHODS OF TREATING OR PREVENTING SPINAL MUSCULAR ATROPHY” (BIOGEN MA INC., priority 2019, published 2024).

What was measured:
nonhuman primate = experiment: Nonhuman primate safety studies; format: in vivo
pNf-H = experiment: Plasma pNf-H biomarker in nusinersen clinical trials; format: in vivo, human; conditions: SMA types 1, 2 and presymptomatic infants
From the text: In nusinersen clinical trials with SMA types 1, 2 and presymptomatic infants, plasma pNf-H differentiated SMA individuals from healthy controls. […] Thus assessing the levels of neurofilament (e.g., pNf-H and/or NfL) can be a helpful biomarker prior or during treatment.

[1] = test system: subjects with infantile-onset SMA; experiment: Exposure-response and motor function / motor milestones in nusinersen clinical studies; format: in vivo, human
Protocol: During the nusinersen clinical development program, an exploratory exposure-response analysis was conducted using data for 14 subjects with infantile-onset SMA who received nusinersen. […] All subjects received maintenance doses of 12 mg every 4 months after Day 85. Separation of the response curves for the 2 cohorts began around Day 29 and became wider over the course of the study.

[2] = human, in vivo
Protocol: In studies to explore the relationship between nusinersen exposure and clinical response, data from subjects with infantile-onset SMA (subjects <6 months of age at diagnosis or symptom onset) were used. Analyses were conducted to characterize a quantitative PK/PD relationship for nusinersen and to determine if higher nusinersen exposure is associated with additional efficacy in the infantile-onset SMA population.

[3] = test system: subjects with infantile-onset SMA; experiment: PK/PD (Emax) model of CSF Ctrough versus change from baseline in CHOP-INTEND; design: species or system human; conditions: model projection
From the text: Dashed (long), solid, and dashed (shorter) line represents the predicted PK/PD relationship when Emax was fixed at 10, 25, and 40, respectively. The observed data are divided based on 10 quantiles of CSF Ctrough values. The empty and filled circles represent the mean observed and predicted change in CHOP-INTEND from baseline, respectively.

Substance: nusinersen
- safety of 28 and 50 mg doses (nonhuman primate): support the use of these doses
- plasma pNf-H after treatment initiation (pNf-H): rapid decline followed by stabilization
- attainment of motor milestones ([1]; 12 mg loading doses versus 6 mg loading doses on Days 1, 15, 85, infantile-onset SMA): earlier and greater improvement
- correlation between nusinersen CSF exposure and motor function ([1]; 14 subjects with infantile-onset SMA, exploratory exposure-response analysis): statistically significant positive correlation
- correlation between CSF Ctrough and total motor milestones scores ([1]; infantile- or later-onset SMA, 12 mg as 4 loading doses then every 4 months, preliminary analysis, data not shown): positive correlation
- improvement in motor function ([1]; more frequent dosing: 12 mg loading Days 1, 15, 29, 64, 12 mg maintenance every 4 months, infantile-onset SMA): Greater improvement
- maximum mean [SD] CSF Ctrough [2]: 31.3 [24.8] ng/mL
- CSF Ctrough that will achieve 90% of the maximum observed response [3]: 23 ng/mL
